Experimental data: patent US20180333382A1, “PHARMACEUTICAL COMPOSITIONS COMPRISING DGLA AND USE OF SAME” (DS Biopharma Limited, priority 2017, published 2018)
Entries after “also recorded” stand apart in the source; their conditions may differ. Marks after values point to notes of the source that are not given here.

Assays:
[1] = test system: patients with moderate to severe atopic dermatitis having normal eosinophil levels; assay: Post hoc stratification of the phase II study by eosinophil level (normal <0.3×10^9/L); assay type: in vivo, human; settings: for Percentage Change of BSA Levels From Baseline, Mean / Percentage Change of DLQI Scores From Baseline, Mean / Percentage Change of EASI Scores From Baseline, Mean / Percentage Change of IGA Scores From Baseline, Mean / Percentage Change of POEM Scores From Baseline, Mean / Percentage Change of SCORAD Levels From Baseline, Mean / Percentage Change of VAS Scores From Baseline, Mean: Normal Eosinophil Population
Procedure: (§1) Further to the randomized, double-blind, placebo-controlled, phase II study of Example 2 above, a post hoc stratification analysis was performed using the results of that study to assess the efficacy of orally administered DS107G (DGLA) to patients with moderate to severe atopic dermatitis having normal eosinophil levels of less than about 0.3×10^9/L compared to the same population receiving placebo and/or to the total study population. The primary objective of the post hoc stratification study was to compare the efficacy of orally administered DS107G capsules, versus placebo, in the treatment of adult patients with moderate to severe atopic dermatitis having normal eosinophil levels of less than about 0.3×10^9/L. The secondary objective was to compare the efficacy of orally administered DS107G capsules in the treatment of adult patients with moderate to severe atopic dermatitis having normal eosinophil levels of less than about 0.3×10^9/L versus the total study population. Unless stated otherwise, all elements of the post hoc stratification analysis were the same as those of the phase II study described in Example 2 above.

[2] = test system: patients with moderate to severe atopic dermatitis having high eosinophil levels; assay: Post hoc stratification of the phase II study: subgroup with high eosinophil > 0.3 × 10^9/L; assay type: in vivo, human; settings: daily, 8 weeks
Procedure: as §1
A comparison of the total study population (see column “DS107 Phase 2a I.T.T.”), patients having normal eosinophil levels, and patients having high eosinophil levels separated by patients who received DS107 or placebo is shown in Table 32 below.

[3] = Normal Eosinophil < 0.3 × 10^9/L, daily, 8 weeks
[4] = Normal Eosinophil < 0.3 × 10^9/L, daily, 8 weeks, LOCF
[5] = normal eosinophil levels, weeks 2, 4, 6, 8 and 10, vs placebo or total study population
[6] = patients having normal eosinophil levels
[7] = study population having normal eosinophil levels, oral, once daily, 8 weeks

CCCCC/C=C\C/C=C\C/C=C\CCCCCCC(=O)O [DS107G, Dihomo gamma linolenic acid]
EASI-50 (%) [1, 3]: 60%
EASI-75 (%) [1, 3]: 40%
BSA Change from Baseline [1, 4]: −41% *
EASI Percentage Change from Baseline [1, 4]: −51% *
IGA responder (%) [1, 4]: 42% *
Pruritus Percentage Change from Baseline [1, 4]: −53% *
Percentage Change of BSA Levels From Baseline, Mean ([1]; Week 2): −10.8%
Percentage Change of DLQI Scores From Baseline, Mean ([1]; Week 2): −41.3%
Percentage Change of EASI Scores From Baseline, Mean ([1]; Week 2): −20.7%
Percentage Change of IGA Scores From Baseline, Mean ([1]; Week 2): −15.1%
Percentage Change of POEM Scores From Baseline, Mean ([1]; Week 2): −41.8%
Percentage Change of SCORAD Levels From Baseline, Mean ([1]; Week 2): −16.5%
Percentage Change of VAS Scores From Baseline, Mean ([1]; Week 2): −29.8%
Percentage Change of BSA Levels From Baseline, Mean ([1]; Week 4): −21.2%
Percentage Change of DLQI Scores From Baseline, Mean ([1]; Week 4): −58.2%
Percentage Change of EASI Scores From Baseline, Mean ([1]; Week 4): −41.9%
Percentage Change of IGA Scores From Baseline, Mean ([1]; Week 4): −28.8%
Percentage Change of POEM Scores From Baseline, Mean ([1]; Week 4): −55.3%
Percentage Change of SCORAD Levels From Baseline, Mean ([1]; Week 4): −34.8%
Percentage Change of VAS Scores From Baseline, Mean ([1]; Week 4): −50.9%
Percentage Change of BSA Levels From Baseline, Mean ([1]; Week 8): −41.0%
Percentage Change of DLQI Scores From Baseline, Mean ([1]; Week 8): −57.5%
Percentage Change of EASI Scores From Baseline, Mean ([1]; Week 8): −51.1%
Percentage Change of IGA Scores From Baseline, Mean ([1]; Week 8): −42.6%
Percentage Change of POEM Scores From Baseline, Mean ([1]; Week 8): −53.1%
Percentage Change of SCORAD Levels From Baseline, Mean ([1]; Week 8): −44.3%
Percentage Change of VAS Scores From Baseline, Mean ([1]; Week 8): −52.7%
Percentage Change of BSA Levels From Baseline, Mean ([1]; Week 10): −49.7%
Percentage Change of DLQI Scores From Baseline, Mean ([1]; Week 10): −61.6%
Percentage Change of EASI Scores From Baseline, Mean ([1]; Week 10): −59.6%
Percentage Change of IGA Scores From Baseline, Mean ([1]; Week 10): −46.2%
Percentage Change of POEM Scores From Baseline, Mean ([1]; Week 10): −50.1%
Percentage Change of SCORAD Levels From Baseline, Mean ([1]; Week 10): −47.1%
Percentage Change of VAS Scores From Baseline, Mean ([1]; Week 10): −47.7%
effect in patients having normal eosinophil levels compared to placebo or the total study population ([1]; in vivo): greater effect; also recorded: higher response rate
change in BSA levels relative to baseline [1, 5]: greater change
change in DLQI levels relative to baseline [1, 5]: greater change
change in EASI scores relative to baseline [1, 5]: greater change
change in IGA scores relative to baseline [1, 5]: greater change
change in POEM scores relative to baseline [1, 5]: greater change
change in SCORAD levels relative to baseline [1, 5]: greater change
change in VAS scores relative to baseline [1, 5]: greater change
IGA responder rate ([1]; patients having high eosinophil levels (greater than about 0.3×10^9/L)): 0%
EASI scoring: patients classified as responders [1, 6]: 51%
IGA responders (IGA 0 or 1 at Week 8, 2-point decrease) [1, 6]: 42%
Pruritus scores (VAS): patients classified as responders [1, 6]: 53%
pruritus reduction [1, 6]: 53%
EASI (% decrease) [1, 7]: 51%
IGA responders (%) [1, 7]: 42%
Pruritus delta (as measured by VAS) [1, 7]: 53%
Pruritus score decrease (as measured by VAS) [1, 7]: c. (2.0)
SCORAD (% decrease) [1, 7]: 44%
BSA Change from Baseline [2]: −14.9%
EASI Percentage Change from Baseline [2]: −20.1%
EASI-50 (%) [2]: 22.7%
EASI-75 (%) [2]: 9.1%
IGA responder (%) [2]: 0%
Pruritus Percentage Change from Baseline [2]: −6.5%
